≈ marks a conversion by molar mass, not a printed value.
Experiments:
[1] = test system: Salmonella enteritidis ATCC 13075; assay: Broth microdilution MIC, S. enteritidis; format: cell-based; details: Salmonella enterica; S. enteritidis ATCC 13075; Luria-Bertani broth, 24 h, 37°C; read-out: MIC
Experimental: (§1) Minimal inhibitory concentration (MIC) values against Pseudomonas aeruginosa PA01, Staphylococcus aureus ATCC 43300, Salmonella enteritidis ATCC 13075, Salmonella pullorum ATCC 13036, Escherichia coli NCTC 9001, Listeria monocytogenes NCTC 11994, and Enterococcus faecalis ATCC 29212 were determined in Luria-Bertani broth (10.0 g/L tryptone, 10.0 g/L NaCl, 5.0 g/L yeast extract, pH 7.2) in accordance with the standard broth microdilution assay for bacteria that grow aerobically, as recommended by the CLSI (Clinical and Laboratory Standards Institute, Methods for Dilution Antimicrobial Susceptibility Tests for Bacteria That Grow Aerobically; Approved Standard—Tenth Edition M07-A10. CLSI). The highest tested concentration was 500 μg/mL, and the inocula were 1^·10^6 cfu/mL.

[2] = test system: Staphylococcus aureus ATCC 43300; assay: Broth microdilution MIC, S. aureus; format: cell-based; details: Staphylococcus aureus, ATCC43300; S. aureus ATCC 43300; Luria-Bertani broth, 24 h, 37°C; read-out: MIC
Experimental: as §1

[3] = test system: Listeria monocytogenes NCTC 11994; assay: Broth microdilution MIC, L. monocytogenes; format: cell-based; details: Listeria monocytogenes, NCTC11994; L. monocytogenes NCTC 11994; Luria-Bertani broth, 24 h, 37°C; read-out: MIC
Experimental: as §1

[4] = test system: Pseudomonas aeruginosa PAO1; assay: Broth microdilution MIC, P. aeruginosa; format: cell-based; details: Pseudomonas aeruginosa; P. aeruginosa PAO1; Luria-Bertani broth, 24 h, 37°C; read-out: MIC
Experimental: as §1

[5] = test system: C. glabrata ATCC 2001; assay: Broth microdilution MIC, C. glabrata; format: cell-based, Candida glabrata; details: Nakaseomyces glabratus, ATCC2001; C. glabrata ATCC 2001; RPMI 1640 with 2% glucose; read-out: MIC
Experimental: (§2) Stock solutions of bpa, bpe, and silver(I) complexes 1–3 were prepared fresh in DMSO (50 mg/mL) and kept at 4°C prior to use. Susceptibility testing of Candida spp. (C. albicans ATCC 10231, C. krusei ATCC 6258, C. parapsilosis ATCC 22019, and C. glabrata ATCC 2001) was performed according to CLSI broth microdilution guidelines (Clinical and Laboratory Standards Institute, Reference Method for Broth Dilution Antifungal Susceptibility Testing of Yeasts—Third Edition: Approved Standard M27-A3; Clinical and Laboratory Standards Institute, Reference Method for Broth Dilution Antifungal Susceptibility Testing of Yeasts: Fourth Informational Supplement M27-S4), in RPMI 1640 medium (Roswell Park Memorial Institute medium) containing 2% glucose (w/v). The highest tested concentration was 500 μg/mL, and the inocula were 1^·\10^5 colony forming units (cfu)/mL.

[6] = test system: C. parapsilosis ATCC 22019; assay: Broth microdilution MIC, C. parapsilosis; format: cell-based, Candida parapsilosis; details: Lodderomyces parapsilosis, ATCC22019; C. parapsilosis ATCC 22019; RPMI 1640 with 2% glucose; read-out: MIC
Experimental: as §2

[7] = MTT assay on a human fibroblast cell line; format: cell-based; details: human, MRC-5 human lung fibroblast cells, MRC-5, MTT, read-out: IC50 (cytotoxic effect on MRC-5 cells)
Experimental: Antiproliferative activity was tested by 3-(4,5-dimethylthiazol-2-yl)-2,5-diphenyltetrazolium bromide (MTT) assay on a human lung fibroblast cell line (MRC-5; ATCC collection). Pregrown (24 h) cell monolayers were incubated in the media containing the tested compounds at concentrations ranging from 5 to 500 μg/mL and the cell viability was measured after 48 h. RPMI 1640 medium supplemented with 100 μg/mL streptomycin, 100 U/mL penicillin, and 10% (v/v) FBS (all from Sigma, Munich, Germany) was used for the cultivation of MRC-5 cell line. Cells were maintained as a monolayer (1^·10^4 cells per well) in RPMI 1640 and grown in a humidified atmosphere of 95% air and 5% CO2 at 37°C. The extent of MTT reduction was measured spectrophotometrically at 540 nm using Tecan Infinite 200 Pro multiplate reader (Tecan Group Ltd, Männedorf, Switzerland), and the cell survival was expressed as a percentage of the control (untreated cells). Cytotoxicity was expressed as the concentration of the compound inhibiting cell growth by 50% (IC50).

[8] = test system: investigated bacterial strains; assay: Broth microdilution MIC, panel of bacterial strains; format: cell-based
Experimental: as §1

[9] = test system: Escherichia coli NCTC 9001; assay: Broth microdilution MIC, E. coli; format: cell-based; details: Escherichia coli, NCTC9001; E. coli NCTC 9001; Luria-Bertani broth, 24 h, 37°C; read-out: MIC
Experimental: as §1

[10] = test system: Salmonella pullorum ATCC 13036; assay: Broth microdilution MIC, S. pullorum; format: cell-based; details: Salmonella enterica; S. pullorum ATCC 13036; Luria-Bertani broth, 24 h, 37°C; read-out: MIC
Experimental: as §1

[11] = test system: Enterococcus faecalis ATCC 29212; assay: Broth microdilution MIC, E. faecalis; format: cell-based; details: Enterococcus faecalis, ATCC29212; E. faecalis ATCC 29212; Luria-Bertani broth, 24 h, 37°C; read-out: MIC
Experimental: as §1

[12] = test system: C. krusei ATCC 6258; assay: Broth microdilution MIC, C. krusei; format: cell-based, Candida krusei; details: Pichia kudriavzevii, ATCC6258; C. krusei ATCC 6258; RPMI 1640 with 2% glucose; read-out: MIC
Experimental: as §2

[13] = test system: C. albicans ATCC 10231; assay: Broth microdilution MIC, C. albicans; format: cell-based, Candida albicans; details: Candida albicans, ATCC10231; C. albicans ATCC 10231; RPMI 1640 with 2% glucose; read-out: MIC
Experimental: as §2

[14] = test system: calf thymus DNA (ctDNA); details: proven DNA intercalator; cited from earlier work

`C(=Cc1ccncc1)c1ccncc1` [bpe, 1,2-bis(4-pyridyl)ethene, reference compound] showed an MIC [1] of over 500 µg/mL, an MIC [2] of over 500 µg/mL and an MIC [3] of 100 µg/mL (≈ 549 µM). The MIC [4] was 500 µg/mL (≈ 2740 µM), the MIC [5] was 100 µg/mL (≈ 549 µM) and the MIC [6] was 125 µg/mL (≈ 686 µM). The IC50 at 48 h [7] was 220 µg/mL (≈ 1210 µM), the “MIC / antibacterial activity” value [8] was “not significant” and the MIC [9] was 250 µg/mL (≈ 1370 µM). For the same molecule, the MIC [10] was over 500 µg/mL, the MIC [11] was over 500 µg/mL and the MIC [12] was 200 µg/mL (≈ 1100 µM). It also gave an MIC [13] of 200 µg/mL (≈ 1100 µM).

In the case of `C[n+]1c2ccccc2c(-c2c3ccccc3[n+](C)c3ccccc23)c2ccccc21` [lucigenin], the Hypochromism [14] is given as 50%.

From article PMC7178511, “Antimicrobial Activity and DNA/BSA Binding Affinity of Polynuclear Silver(I) Complexes with 1,2-Bis(4-pyridyl)ethane/ethene as Bridging Ligands” (Bioinorganic Chemistry and Applications, 2020)
